Measured values taken from the supplement of paper PMC10307832.

Tests used:
Experiment in all cases: relative viability (nuclei count vs DMSO), 5 days (fraction); higher = more cells survive
[1] = tested on: LC-2-ad
Method in brief: (§1)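 Relative viability divides the nuclei count in treated wells by that in vehicle wells. Lung cancer cell lines were seeded in 1536-well plates, dosed by pin tool the next day, and fixed and stained after 5 days in one step with final 0.05% Triton X-100, 1% formaldehyde and 1 ug/ml Hoechst. Dosing was a single drug or a fixed anchor-drug dose plus five library-drug doses (not always all listed) in √10 steps, and values are medians of duplicate plates imaged at 4×.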

[2] = tested on: NCI-H838
Method in brief: as §1

[3] = tested on: LK-2
Method in brief: as §1

[4] = tested on: SK-LU-1
Method in brief: as §1

[5] = tested on: NCI-H2009
Method in brief: as §1

[6] = tested on: ChaGo-K-1
Method in brief: as §1

[7] = tested on: NCI-H2405
Method in brief: as §1

[8] = tested on: HARA
Method in brief: as §1

[9] = tested on: EMC-BAC-2
Method in brief: as §1

[10] = tested on: NCI-H2023
Method in brief: as §1

[11] = tested on: A-427
Method in brief: as §1

[12] = tested on: ABC-1
Method in brief: as §1

[13] = tested on: HCC-78
Method in brief: as §1

[14] = tested on: NCI-H1734
Method in brief: as §1

[15] = tested on: HCC-15
Method in brief: as §1

[16] = tested on: NCI-H1650
Method in brief: as §1

[17] = tested on: NCI-H1993
Method in brief: as §1

[18] = tested on: COR-L23
Method in brief: as §1

[19] = tested on: NCI-H1944
Method in brief: as §1

[20] = tested on: NCI-H23
Method in brief: as §1

[21] = tested on: UMC-11
Method in brief: as §1

[22] = tested on: HCC-366
Method in brief: as §1

[23] = tested on: NCI-H1793
Method in brief: as §1

[24] = tested on: NCI-H2228
Method in brief: as §1

SMILES: C[C@@H]1CN(CC(=O)Nc2ccc3c(c2)Cc2cccc(-c4cc(=O)cc(N5CCOCC5)o4)c2S3)C[C@H](C)O1 + COc1cc2c(Oc3ccc(NC(=O)C4(C(=O)Nc5ccc(F)cc5)CC4)cc3F)ccnc2cc1OCCCN1CCOCC1 [Foretinib] (partner 0.25 µM)
- relative viability ([1]; first compound 0.04 µM): 0.863
- relative viability ([1]; first compound 0.1265 µM): 0.921
- relative viability ([1]; first compound 0.4 µM): 0.913
- relative viability ([1]; first compound 4 µM): 0.874
- relative viability ([2]; first compound 0.04 µM): 0.871
- relative viability ([2]; first compound 0.1265 µM): 0.952
- relative viability ([2]; first compound 0.4 µM): 0.969
- relative viability ([2]; first compound 4 µM): 0.723
- relative viability ([3]; first compound 0.1265 µM): 1.27
- relative viability ([3]; first compound 0.4 µM): 1.16
- relative viability ([3]; first compound 4 µM): 1.47
- relative viability ([4]; first compound 0.04 µM): 0.813
- relative viability ([4]; first compound 0.1265 µM): 0.831
- relative viability ([4]; first compound 0.4 µM): 0.859
- relative viability ([4]; first compound 4 µM): 0.565
- relative viability ([5]; first compound 0.04 µM): 1.35
- relative viability ([5]; first compound 0.1265 µM): 1.18
- relative viability ([5]; first compound 0.4 µM): 1.15
- relative viability ([5]; first compound 4 µM): 0.967
- relative viability ([6]; first compound 0.04 µM): 0.793
- relative viability ([6]; first compound 0.1265 µM): 0.929
- relative viability ([6]; first compound 0.4 µM): 0.892
- relative viability ([6]; first compound 4 µM): 0.825
- relative viability ([7]; first compound 0.04 µM): 1.02
- relative viability ([7]; first compound 0.1265 µM): 1.08
- relative viability ([7]; first compound 0.4 µM): 1.03
- relative viability ([7]; first compound 4 µM): 1.03
- relative viability ([8]; first compound 0.1265 µM): 0.757
- relative viability ([8]; first compound 0.4 µM): 0.891
- relative viability ([8]; first compound 4 µM): 0.879
- relative viability ([9]; first compound 0.04 µM): 1.08
- relative viability ([9]; first compound 0.1265 µM): 1.04
- relative viability ([9]; first compound 0.4 µM): 0.998
- relative viability ([9]; first compound 4 µM): 0.92
- relative viability ([10]; first compound 0.04 µM): 0.732
- relative viability ([10]; first compound 0.1265 µM): 0.915
- relative viability ([10]; first compound 0.4 µM): 0.731
- relative viability ([10]; first compound 4 µM): 0.666
- relative viability ([11]; first compound 0.04 µM): 1.05
- relative viability ([11]; first compound 0.1265 µM): 1.17
- relative viability ([11]; first compound 0.4 µM): 1.11
- relative viability ([11]; first compound 4 µM): 1.22
- relative viability ([12]; first compound 0.1265 µM): 1.11
- relative viability ([12]; first compound 0.4 µM): 1.06
- relative viability ([12]; first compound 4 µM): 0.928
- relative viability ([13]; first compound 0.04 µM): 0.554
- relative viability ([13]; first compound 0.1265 µM): 0.579
- relative viability ([13]; first compound 0.4 µM): 0.513
- relative viability ([13]; first compound 4 µM): 0.468
- relative viability ([14]; first compound 0.04 µM): 0.881
- relative viability ([14]; first compound 0.1265 µM): 0.851
- relative viability ([14]; first compound 0.4 µM): 0.789
- relative viability ([14]; first compound 4 µM): 0.976
- relative viability ([15]; first compound 0.04 µM): 1.05
- relative viability ([15]; first compound 0.1265 µM): 1.06
- relative viability ([15]; first compound 0.4 µM): 1.02
- relative viability ([15]; first compound 4 µM): 0.73
- relative viability ([16]; first compound 0.04 µM): 1.07
- relative viability ([16]; first compound 0.1265 µM): 1.14
- relative viability ([16]; first compound 0.4 µM): 1.04
- relative viability ([16]; first compound 4 µM): 0.678
- relative viability ([17]; first compound 0.04 µM): 0.811
- relative viability ([17]; first compound 0.1265 µM): 0.711
- relative viability ([17]; first compound 0.4 µM): 0.646
- relative viability ([17]; first compound 4 µM): 0.707
- relative viability ([18]; first compound 0.04 µM): 0.991
- relative viability ([18]; first compound 0.1265 µM): 1.05
- relative viability ([18]; first compound 0.4 µM): 1.02
- relative viability ([18]; first compound 4 µM): 0.929
- relative viability ([19]; first compound 0.04 µM): 0.761
- relative viability ([19]; first compound 0.1265 µM): 0.888
- relative viability ([19]; first compound 0.4 µM): 0.926
- relative viability ([19]; first compound 4 µM): 0.912
- relative viability ([20]; first compound 0.04 µM): 0.95
- relative viability ([20]; first compound 0.1265 µM): 0.85
- relative viability ([20]; first compound 0.4 µM): 0.945
- relative viability ([20]; first compound 4 µM): 0.844
- relative viability ([21]; first compound 0.04 µM): 1.1
- relative viability ([21]; first compound 0.1265 µM): 0.995
- relative viability ([21]; first compound 0.4 µM): 1.1
- relative viability ([21]; first compound 4 µM): 0.746
- relative viability ([22]; first compound 0.04 µM): 0.922
- relative viability ([22]; first compound 0.1265 µM): 0.929
- relative viability ([22]; first compound 0.4 µM): 1.1
- relative viability ([22]; first compound 4 µM): 0.913
- relative viability ([23]; first compound 0.04 µM): 0.556
- relative viability ([23]; first compound 0.1265 µM): 0.72
- relative viability ([23]; first compound 0.4 µM): 0.809
- relative viability ([23]; first compound 4 µM): 0.476
- relative viability ([24]; first compound 0.04 µM): 0.82
- relative viability ([24]; first compound 0.1265 µM): 0.689
- relative viability ([24]; first compound 0.4 µM): 0.726
- relative viability ([24]; first compound 4 µM): 0.816
